The values below come from paper PMC8371548 (BioTechniques, 2021).

Entries after “also recorded” stand apart in the source; their conditions may differ.

The subject of assay [1] is AR. The settings on record: cited from earlier work.
A further assay has as its system H295R cells. The assay can be described thus: H295R cell-based steroidogenesis assay. The arrangement: species or system human. The settings on record: for effect on testosterone production in words: 10^−11 to 10^−5 M.
Assay [2] concerns AR. The settings on record: read-out: IC50 range in ICCVAM meta-analysis; cited from earlier work.
Assay [3] deals with AR. The settings on record: at high concentrations (10^−5 M); cited from earlier work.
Assay [4] relates to AR. The settings on record: cited from earlier work; for EC50: read-out: AR-EcoScreen assay EC50, ref Dennis et al. [18].
For assay [5], the system named is AR. Particulars: cited from earlier work. The source holds these as a separate data set.
Assay [6] has as its system AR. Particulars: cited from earlier work. This is another data set of the same source.
A further assay has as its target T1, androgen receptor (AR) (Homo sapiens, UniProt P10275).
T1 sequence (P10275 1-920): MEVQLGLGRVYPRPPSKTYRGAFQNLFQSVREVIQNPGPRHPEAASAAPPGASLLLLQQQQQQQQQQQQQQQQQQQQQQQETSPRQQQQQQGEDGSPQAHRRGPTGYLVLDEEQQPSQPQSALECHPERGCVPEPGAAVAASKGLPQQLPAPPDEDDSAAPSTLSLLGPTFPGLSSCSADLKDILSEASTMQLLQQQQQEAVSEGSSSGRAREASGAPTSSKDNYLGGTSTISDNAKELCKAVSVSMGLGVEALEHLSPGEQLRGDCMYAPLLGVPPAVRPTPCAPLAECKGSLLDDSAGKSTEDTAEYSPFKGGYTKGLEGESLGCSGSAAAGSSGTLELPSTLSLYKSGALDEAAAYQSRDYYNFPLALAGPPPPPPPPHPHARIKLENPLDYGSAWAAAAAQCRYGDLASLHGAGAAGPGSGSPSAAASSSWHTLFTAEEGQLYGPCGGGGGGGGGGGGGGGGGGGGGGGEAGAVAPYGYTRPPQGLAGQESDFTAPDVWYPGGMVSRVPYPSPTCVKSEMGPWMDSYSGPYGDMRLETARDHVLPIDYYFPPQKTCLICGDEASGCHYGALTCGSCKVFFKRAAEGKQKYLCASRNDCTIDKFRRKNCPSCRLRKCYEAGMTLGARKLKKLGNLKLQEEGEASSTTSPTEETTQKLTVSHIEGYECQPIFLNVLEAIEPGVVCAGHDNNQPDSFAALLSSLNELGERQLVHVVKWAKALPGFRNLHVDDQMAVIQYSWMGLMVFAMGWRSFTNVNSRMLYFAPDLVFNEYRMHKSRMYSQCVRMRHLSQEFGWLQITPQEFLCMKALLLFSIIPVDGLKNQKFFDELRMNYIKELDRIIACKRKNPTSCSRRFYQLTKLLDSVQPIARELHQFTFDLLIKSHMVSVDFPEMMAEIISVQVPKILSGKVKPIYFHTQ
The assay is classed as cell-based.

For the compound `C#C[C@]1(O)CC[C@H]2[C@@H]3CCc4cc(O)ccc4[C@H]3CC[C@@]21C` [17α-Ethinylestradiol, 17α-Ethynylestradiol], the “AR antagonist classification in AR-EcoScreen assay” value with AR [1] is “AR antagonist”.

The IC50 is the concentration that gives 50% inhibition. On to `CC(C)(O)C(=O)Nc1ccc([N+](=O)[O-])c(C(F)(F)F)c1` [Hydroxyflutamide], for which the “effect on testosterone production in words” value (from here on “effect … in words”) in the assay with H295R cells is “did not alter testosterone production”; in the assay on H295R cells (listed as hydroxyflutamide), “did not change testosterone levels”. Moreover, the IC50 in the assay on AR [2] is […]. For the same compound, in the assay with AR [3], the “AR transcriptional activation activity” value is “low AR transcriptional activation activity”.

On to `C[C@]12C[C@H](O)[C@H]3[C@@H](CCC4=CC(=O)CC[C@@]43C)[C@@H]1CC[C@@H]2C(=O)CO` [Corticosterone], for which the “AR agonist classification in AR-EcoScreen assay” value with AR [4] is “Positive AR transcriptional activity”. Also, the “AR transcriptional activity in MDA-kb2 assay” value in the assay with AR [5] is “Positive AR transcriptional activity”. In addition, the “AR agonistic effects in yeast-based reporter assays” value in the assay with AR [6] is “failed to elicit positive AR agonistic effects”. With `C[C@]12C=CC3=C4CCC(=O)C=C4CC[C@H]3[C@@H]1CC[C@@H]2O` [17β-Trenbolone, 17ß-Trenbolone], the “AR agonist activity in words” value on androgen receptor (AR) is recorded as “strongly induced autobioluminescence; also recorded: induced autobioluminescent signal exceeding the maximal response of 5α-dihydrotestosterone”.

As for `CC(C)C(=O)Nc1ccc([N+](=O)[O-])c(C(F)(F)F)c1` [Flutamide], the “effect … in words” value was “did not induce autobioluminescence or change testosterone production” in the assay with H295R cells and “did not demonstrate a detectable change in testosterone production” in the assay on H295R cells (listed as flutamide).

The EC50 is the concentration that produces a half-maximal response. As for `C[C@]12CC[C@H]3[C@@H](CCC4=CC(=O)CC[C@@]43C)[C@@H]1CC[C@@H]2O` [Testosterone], the EC50 with AR [4] was […].

Turning to `C[C@]12CCC(=O)C[C@@H]1CC[C@@H]1[C@@H]2CC[C@]2(C)[C@@H](O)CC[C@@H]12` [5α-Dihydrotestosterone], the EC50 with AR [4] is […]. On to `C[C@]12CCC(=O)C=C1CC[C@@H]1[C@@H]2CC[C@]2(C)C(=O)CC[C@@H]12` [4-Androstenedione], for which the EC50 in the assay with AR [4] is […]. For the compound `C#CC1(O)CC[C@H]2[C@@H]3CCC4=CC(=O)CC[C@@H]4[C@H]3CC[C@@]21CC` (mixture of isomers) [Norgestrel, norgestrel], the “effect … in words” value with H295R cells is “increased testosterone production”. Also, in the assay on H295R cells (Homo sapiens, NCI-H295R, read-out: H295R testosterone assay EC50), the EC50 was 730 nM.

As for `CC(O)(CS(=O)(=O)c1ccc(F)cc1)C(=O)Nc1ccc(C#N)c(C(F)(F)F)c1` (stereo not drawn) [Bicalutamide], the IC50 in the assay on AR [2] is […]. As for `CC#C[C@]1(O)CC[C@H]2[C@@H]3CCC4=CC(=O)CCC4=C3[C@@H](c3ccc(N(C)C)cc3)C[C@@]21C` [Mifepristone], the concentration for a half-maximal effect (EC50) in the assay with AR [4] is […]. Turning to `C[C@]12CCC(=O)C=C1CC[C@@H]1[C@@H]2CC[C@@]2(C)[C@H]1CC[C@]2(C)O` [17α-Methyltestosterone], the EC50 in the assay with AR [4] is […]. `CC(=O)N1CCN(c2ccc(OCC3COC(Cn4ccnc4)(c4ccc(Cl)cc4Cl)O3)cc2)CC1` (stereo not drawn) [Ketoconazole]: the “AR agonist classification in AR-EcoScreen assay” value with AR [4] is on record as “negative AR agonist”. Besides, the “AR agonism response in yeast assays” value in the assay with AR [6] is on record as “positive AR agonism response”.
